Measurements as given in patent publication US20100034832A1, “METHODS FOR MANIPULATING STEM CELLS” (THE GENERAL HOSPITAL CORPORATION, priority 2006, published 2010).
Read-outs that look alike come from different tables or passages of the source.

Legend:
[1] = test system: immature HSC fraction of the BM; details: 200 mg/kg CTX intraperitoneally, day 4
Protocol: In the CIX injury model, either sterile PBS or CTX at final concentration of 200 mg/kg mouse weight was injected intraperitoneally. At day 4 after injection, mice were euthanized and BM was obtained from femurs and tibiae of each mouse (n=5 per group).
Apoptosis was measured by AnnexinV and 7AAD staining as previously described Cheng, T. et al. Nat. Med. 6, 1235-1240 (2000).

PB leucocyte count = assay: 5-fluorouracil (5FU) BM injury model, PB counts; format: in vivo, mouse; details: single 150 mg/kg 5FU intraperitoneally
Protocol: Similar results were obtained when mice were subjected to BM injury using 5-fluorouracil (5FU) (data not shown). In the 5FU injury model, 150 mg/kg mouse weight 5FU was injected intraperitoneally at day 0 PB was obtained through tail vein bleeding for analysis weekly starting day 0 (n=10 per group).
Next, we examined the role of P2Y14 in long-term hematopoietic recovery from BM injury. The mice were subjected to a single injection of 5FU and followed the peripheral blood (PB) leucocyte counts as well as PB granulocyte, B cell and T cell content by flow cytometry.
Med. 6, 1235-1240 (2000).

Compound | immature HSC fraction of the BM (% LKS+, % CD34lo/-LKS+) ([1]; P2Y14-/- mice) | apoptosis in the immature HSC fraction ([1]; P2Y14-/- mice, AnnexinV and 7AAD) | immature HSC fraction of the BM (% LKS+, % CD34lo/-LKS+) ([1]; wildtype mice) | persistence of greater than normal granulocyte (Gr-1+) count rebound (PB leucocyte count; P2Y14-/- mice) | nadir of total PB leucocyte count (PB leucocyte count; both -/- and +/+ mice) [days] | peak of rebound leucocytosis (PB leucocyte count; both -/- and +/+ mice) [days] | return to baseline leucocyte count (PB leucocyte count; both -/- and +/+ mice)
O=P1(N(CCCl)CCCl)NCCCO1 (stereo not shown) [CTX, cyclophosphamide] | loss of enrichment for immature HSC fraction | increased apoptosis | enrichment of immature HSC fraction |  |  |  | 
O=c1[nH]cc(F)c(=O)[nH]1 [5FU, 5-fluorouracil] |  |  |  | up to 9 weeks | 7 | 14 | 3-4 weeks post-injection
